Results: patent publication US11173151B2, “Substituted triazole derivatives and uses thereof” (BAYER AKTIENGESELLSCHAFT, priority 2017, dated 2021)

Assays:
human V2 receptor = molecular target: T1, human V2 receptor (Homo sapiens, UniProt P30518); experiment: Cellular in vitro assay for determining vasopressin receptor activity, V2 receptor cell line (CHO, CRE-luciferase); assay type: cell-based; conditions: CHO cell line transfected with human V2 receptor; [Arg8]-vasopressin at EC50 concentration, 3 hours; read-out: IC50 hV2
T1 construct: expressed in transfected cells; host or cells: CHO K1 (ATCC) expressing firefly luciferase under a CRE-responsive promoter

human V1a receptor = molecular target: T2, human V1a receptor (Homo sapiens, UniProt P37288); experiment: Cellular in vitro assay for determining vasopressin receptor activity, V1a receptor cell line (CHO, aequorin luminescence); assay type: cell-based; conditions: for IC50: CHO cell line transfected with human V1a receptor, [Arg]-vasopressin at EC50 concentration, read-out: IC50 hV1a; for ratio IC50 hV2/hV1a: selectivity ratio IC50 hV2 / IC50 hV1a
T2 construct: expressed in transfected cells; host or cells: CHO K1 (ATCC), also stably transfected with a modified aequorin
In short: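 Antagonism is measured in stable CHO K1 transfectants coexpressing the Gαq-coupled receptor and a calcium-sensitive aequorin photoprotein. Agonist challenge uses [Arg]-vasopressin at EC50 after a 10-minute compound exposure; IC50 values come from the luminescence signal.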

T2 sequence (P37288 whole entry): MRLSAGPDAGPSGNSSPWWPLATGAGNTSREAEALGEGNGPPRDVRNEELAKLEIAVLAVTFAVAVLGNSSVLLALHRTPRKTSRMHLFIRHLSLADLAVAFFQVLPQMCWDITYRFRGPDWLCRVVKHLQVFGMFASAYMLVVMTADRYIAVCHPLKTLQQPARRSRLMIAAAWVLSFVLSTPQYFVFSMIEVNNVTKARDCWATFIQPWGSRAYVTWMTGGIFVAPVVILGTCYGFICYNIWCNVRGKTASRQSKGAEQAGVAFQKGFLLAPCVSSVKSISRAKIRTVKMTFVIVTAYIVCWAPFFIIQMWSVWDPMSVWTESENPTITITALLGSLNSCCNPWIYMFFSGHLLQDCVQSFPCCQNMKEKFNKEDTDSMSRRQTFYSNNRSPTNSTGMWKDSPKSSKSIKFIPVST
T1 sequence (P30518 whole entry): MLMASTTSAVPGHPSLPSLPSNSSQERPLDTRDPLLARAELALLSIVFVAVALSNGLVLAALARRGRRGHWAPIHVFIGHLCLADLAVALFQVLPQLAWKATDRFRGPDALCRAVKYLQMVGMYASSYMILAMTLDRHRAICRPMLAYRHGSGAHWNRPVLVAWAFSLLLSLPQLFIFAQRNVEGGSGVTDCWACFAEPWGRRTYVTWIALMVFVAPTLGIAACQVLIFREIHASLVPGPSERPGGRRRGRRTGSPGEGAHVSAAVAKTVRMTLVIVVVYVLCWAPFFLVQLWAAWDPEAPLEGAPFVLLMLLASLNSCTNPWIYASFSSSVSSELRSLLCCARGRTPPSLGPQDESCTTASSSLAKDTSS

| IC50 (human V2 receptor) [nM] | IC50 (human V1a receptor) [nM] | ratio IC50 hV2/hV1a (human V1a receptor) | Compound |
| --- | --- | --- | --- |
| 1800 | 5.3 | 339.6 | CC1(C)CCN(C(=O)c2ccccc2-n2cnc(Cn3nc(-c4ccc(Cl)cc4)n(C[C@H](O)C(F)(F)F)c3=O)n2)CC1 [Example 277, 5-(4-Chlorophenyl)-2-[(1-{2-[(4,4-dimethylpiperidin-1-yl)carbonyl]phenyl}-1H-1,2,4-triazol-3-yl)methyl]-4-[(2S)-3,3,3-trifluoro-2-hydroxypropyl]-2,4-dihydro-3H-1,2,4-triazol-3-one] |
| 405 | 1.6 | 253.1 | O=C(c1ccccc1-n1cnc(Cn2nc(-c3ccc(Cl)cc3)n(C[C@H](O)C(F)(F)F)c2=O)n1)N1CCCCO1 [Example 278, 5-(4-Chlorophenyl)-2-({1-[2-(1,2-oxazinan-2-ylcarbonyl)phenyl]-1H-1,2,4-triazol-3-yl}methyl)-4-[(2S)-3,3,3-trifluoro-2-hydroxypropyl]-2,4-dihydro-3H-1,2,4-triazol-3-one] |
| 2700 | 27.5 | 98.2 | O=C1CN(C(=O)c2ccccc2-n2cnc(Cn3nc(-c4ccc(Cl)cc4)n(C[C@H](O)C(F)(F)F)c3=O)n2)CN1 [Example 279, 5-(4-Chlorophenyl)-2-[(1-{2-[(4-oxoimidazolidin-1-yl)carbonyl]phenyl}-1H-1,2,4-triazol-3-yl)methyl]-4-[(2S)-3,3,3-trifluoro-2-hydroxypropyl]-2,4-dihydro-3H-1,2,4-triazol-3-one] |
| 2800 | 1.12 | 2500.0 | CC1(C)COCCN1C(=O)c1ccccc1-n1cnc(Cn2nc(-c3ccc(Cl)cc3)n(C[C@H](O)C(F)(F)F)c2=O)n1 [Example 281, 5-(4-Chlorophenyl)-2-[(1-{2-[(3,3-dimethylmorpholin-4-yl)carbonyl]phenyl}-1H-1,2,4-triazol-3-yl)methyl]-4-[(2S)-3,3,3-trifluoro-2-hydroxypropyl]-2,4-dihydro-3H-1,2,4-triazol-3-one] |
| 970 | 2 | 485.0 | O=C(c1ccccc1-n1cnc(Cn2nc(-c3ccc(Cl)cc3)n(C[C@H](O)C(F)(F)F)c2=O)n1)N1CCCOCC1 [Example 284, 5-(4-Chlorophenyl)-2-({1-[2-(1,4-oxazepan-4-ylcarbonyl)phenyl]-1H-1,2,4-triazol-3-yl}methyl)-4-[(2S)-3,3,3-trifluoro-2-hydroxypropyl]-2,4-dihydro-3H-1,2,4-triazol-3-one] |
| 440 | 1.9 | 231.6 | O=C(c1ccccc1-n1cnc(Cn2nc(-c3ccc(Cl)cc3)n(C[C@H](O)C(F)(F)F)c2=O)n1)N1CCCO1 [Example 285, 5-(4-Chlorophenyl)-2-({1-[2-(1,2-oxazolidin-2-ylcarbonyl)phenyl]-1H-1,2,4-triazol-3-yl}methyl)-4-[(2S)-3,3,3-trifluoro-2-hydroxypropyl]-2,4-dihydro-3H-1,2,4-triazol-3-one] |
| 2500 | 14.5 | 172.4 | CN(C)C1CN(C(=O)c2ccccc2-n2cnc(Cn3nc(-c4ccc(Cl)cc4)n(C[C@H](O)C(F)(F)F)c3=O)n2)C1 [Example 286, 5-(4-Chlorophenyl)-2-{[1-(2-{[3-(dimethylamino)azetidin-1-yl]carbonyl}phenyl)-1H-1,2,4-triazol-3-yl]methyl}-4-[(2S)-3,3,3-trifluoro-2-hydroxypropyl]-2,4-dihydro-3H-1,2,4-triazol-3-one] |
| 2200 | 5.7 | 386.0 | CC1(C)CN(C(=O)c2ccccc2-n2cnc(Cn3nc(-c4ccc(Cl)cc4)n(C[C@H](O)C(F)(F)F)c3=O)n2)CCO1 [Example 287, 5-(4-Chlorophenyl)-2-[(1-{2-[(2,2-dimethylmorpholin-4-yl)carbonyl]phenyl}-1H-1,2,4-triazol-3-yl)methyl]-4-[(2S)-3,3,3-trifluoro-2-hydroxypropyl]-2,4-dihydro-3H-1,2,4-triazol-3-one] |
